System: parathyroid hormone stimulated bone resorption in mouse calvaria
Test: parathyroid hormone stimulated bone resorption inhibition activity in vitro in mouse calvaria (antiresorptive activity)
Assay type: cell-based
Details: PTH stimulated

Structure (SMILES)	inhibition at 100 µM [%]	Antiresorptive activity, Inhibition of resorption (%) (100 μM)
CCN(CC)P(=O)(O)C(Cl)(Cl)P(=O)(O)O [(dichloromethylene)bisphosphonic acid mono(diethylamide)]	43	
CCN(CC)P(=O)(O)C(Cl)(Cl)P(=O)(O)N(CC)CC [(dichloromethylene)bisphosphonic acid P,P'-bis(diethylamide)]	38	
O=P(O)(O)C(Cl)(Cl)P(=O)(O)O [Clodronate, reference compound]	43	
CCN(CC)P(=O)(O)C(Cl)(Cl)P(=O)(N(CC)CC)N(CC)CC [(dichloromethylene)bisphosphonic acid tris(diethylamide)]	44	
CCN(CC)P(=O)(OC(C)C)C(Cl)(Cl)P(=O)(O)O (centres unmarked) [(dichloromethylene)bisphosphonic acid P-monoisopropyl ester P-mono(diethylamide)]		44

Reference: patent US5442101A, “Methylenebisphosphonic acid derivatives” (Leiras Oy, priority 1990, dated 1995)
